Earlier results in US20190167675A1, “METHODS AND COMPOSITIONS FOR APPETITE CONTROL AND WEIGHT MANAGEMENT” (SHANGHAI YAO YUAN BIOTECHNOLOGY CO., LTD., priority 2016, published 2019).
Read-outs that look alike come from different tables or passages of the source.

Legend:
ASIC3 [1] = molecular target: T1, ASIC3 (Homo sapiens, UniProt Q9UHC3); conditions: cited from earlier work
T1 sequence (Q9UHC3 1-531): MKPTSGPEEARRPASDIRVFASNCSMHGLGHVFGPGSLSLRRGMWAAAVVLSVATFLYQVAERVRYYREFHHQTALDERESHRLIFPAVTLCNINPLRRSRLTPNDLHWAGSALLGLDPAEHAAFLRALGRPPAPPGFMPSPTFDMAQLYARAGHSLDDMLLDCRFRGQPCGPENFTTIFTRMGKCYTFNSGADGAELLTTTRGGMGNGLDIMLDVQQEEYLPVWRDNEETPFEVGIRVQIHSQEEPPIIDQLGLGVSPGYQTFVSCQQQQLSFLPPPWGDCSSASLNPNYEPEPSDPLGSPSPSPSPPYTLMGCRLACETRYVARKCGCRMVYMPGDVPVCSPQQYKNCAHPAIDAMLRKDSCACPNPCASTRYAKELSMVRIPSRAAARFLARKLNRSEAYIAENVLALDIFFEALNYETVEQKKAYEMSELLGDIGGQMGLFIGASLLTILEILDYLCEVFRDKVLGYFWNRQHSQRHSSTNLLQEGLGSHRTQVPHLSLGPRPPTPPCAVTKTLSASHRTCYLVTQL

ASIC3 [2] = conditions: in vivo; cited from earlier work
ENaC [3] = molecular target: T2, ENaC (Rattus norvegicus, UniProt P37089+P37090+P37091); conditions: rat AEC type II cells; cited from earlier work
T2 construct: amiloride-sensitive Na+ currents (via ENaC) in rat, dog, and pig AEC type II cells; endogenous in cells; host or cells: rat AEC type II cells
T2 sequence (P37089 1-698): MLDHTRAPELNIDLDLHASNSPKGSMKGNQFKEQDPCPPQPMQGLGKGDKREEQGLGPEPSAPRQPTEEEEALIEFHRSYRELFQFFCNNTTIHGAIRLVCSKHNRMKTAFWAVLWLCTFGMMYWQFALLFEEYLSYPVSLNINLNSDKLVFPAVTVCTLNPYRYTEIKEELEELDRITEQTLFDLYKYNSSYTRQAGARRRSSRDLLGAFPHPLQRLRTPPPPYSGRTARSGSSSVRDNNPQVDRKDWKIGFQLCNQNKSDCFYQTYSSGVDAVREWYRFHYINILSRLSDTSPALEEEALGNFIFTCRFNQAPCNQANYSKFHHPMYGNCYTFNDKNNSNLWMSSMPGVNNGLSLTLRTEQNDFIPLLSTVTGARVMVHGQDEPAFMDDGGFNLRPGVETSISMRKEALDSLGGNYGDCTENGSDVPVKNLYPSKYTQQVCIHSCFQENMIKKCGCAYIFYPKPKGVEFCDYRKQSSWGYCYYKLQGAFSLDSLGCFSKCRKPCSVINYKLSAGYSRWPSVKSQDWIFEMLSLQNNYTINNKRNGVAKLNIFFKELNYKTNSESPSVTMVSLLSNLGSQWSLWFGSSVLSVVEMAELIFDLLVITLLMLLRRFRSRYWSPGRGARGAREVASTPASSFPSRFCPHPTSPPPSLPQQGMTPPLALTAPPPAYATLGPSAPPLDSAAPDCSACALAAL
T2 sequence (P37090 1-638): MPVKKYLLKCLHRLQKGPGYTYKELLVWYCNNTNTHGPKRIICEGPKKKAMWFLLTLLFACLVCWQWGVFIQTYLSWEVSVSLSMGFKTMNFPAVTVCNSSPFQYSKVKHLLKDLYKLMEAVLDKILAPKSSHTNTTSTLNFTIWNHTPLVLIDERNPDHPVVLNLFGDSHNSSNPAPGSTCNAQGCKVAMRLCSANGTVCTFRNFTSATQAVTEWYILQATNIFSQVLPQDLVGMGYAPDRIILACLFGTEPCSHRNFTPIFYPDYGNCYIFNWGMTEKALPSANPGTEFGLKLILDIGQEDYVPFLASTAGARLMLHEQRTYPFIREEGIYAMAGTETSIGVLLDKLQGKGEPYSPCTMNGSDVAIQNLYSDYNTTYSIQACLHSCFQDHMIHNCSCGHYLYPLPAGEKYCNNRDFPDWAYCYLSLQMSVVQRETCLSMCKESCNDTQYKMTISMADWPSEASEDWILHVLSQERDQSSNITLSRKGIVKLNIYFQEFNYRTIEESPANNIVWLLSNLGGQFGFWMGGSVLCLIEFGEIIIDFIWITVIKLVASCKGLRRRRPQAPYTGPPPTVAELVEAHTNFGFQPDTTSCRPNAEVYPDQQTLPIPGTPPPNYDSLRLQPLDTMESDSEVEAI
T2 sequence (P37091 1-650): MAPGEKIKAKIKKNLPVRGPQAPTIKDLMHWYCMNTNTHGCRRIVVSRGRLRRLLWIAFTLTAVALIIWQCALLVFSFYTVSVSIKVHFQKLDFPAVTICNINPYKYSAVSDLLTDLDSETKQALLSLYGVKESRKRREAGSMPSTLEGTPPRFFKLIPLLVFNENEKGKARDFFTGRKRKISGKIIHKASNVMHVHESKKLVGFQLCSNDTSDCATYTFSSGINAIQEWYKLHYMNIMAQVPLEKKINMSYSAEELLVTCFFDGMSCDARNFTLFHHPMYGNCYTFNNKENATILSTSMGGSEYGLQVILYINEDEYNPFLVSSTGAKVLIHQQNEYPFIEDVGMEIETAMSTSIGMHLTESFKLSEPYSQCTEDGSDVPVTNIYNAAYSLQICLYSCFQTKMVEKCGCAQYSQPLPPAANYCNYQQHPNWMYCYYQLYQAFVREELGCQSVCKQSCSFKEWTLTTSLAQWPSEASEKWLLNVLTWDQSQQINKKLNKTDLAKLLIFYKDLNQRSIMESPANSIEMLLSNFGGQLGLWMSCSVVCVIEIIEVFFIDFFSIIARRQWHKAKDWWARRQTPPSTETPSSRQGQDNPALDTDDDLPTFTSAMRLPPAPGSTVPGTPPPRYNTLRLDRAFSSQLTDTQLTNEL

ENaC [4] = conditions: pig AEC type II cells; cited from earlier work
ENaC [5] = conditions: dog AEC type II cells; cited from earlier work

## Cc1nc(NC(=N)N)nc2ccccc12 [GMQ, 2-guanidine-4-methylquinazoline]
ASIC3 [1]
  ASIC3 currents: induces persistent ASIC3 currents
ASIC3 [2]
  pain related behavior: induces pain related behavior

## AP301: ENaC activator; human TNF-α-derived cyclic peptide composed of 17 natural amino acids
ENaC [3]
  increase of amiloride-sensitive Na+ currents versus baseline: about 9 fold
ENaC [4]
  increase of amiloride-sensitive Na+ currents versus baseline: ~16 fold
ENaC [5]
  increase of amiloride-sensitive Na+ currents versus baseline: ~13 fold
